Reference: the supplement of paper PMC12463676, “Small-molecule dissolution of stress granules by redox modulation benefits ALS models” (Nature Chemical Biology, 2025)

Legend:
potassium arsenate = compound: O=[As]([O-])(O)O.[K+] [potassium arsenate]; assay: thermal stability z-score vs DMSO; higher = more thermally stabilized by treatment; conditions: HeLa; arsenate concentration 1 mM
Method: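 Cellular thermal proteome profiling in HeLa cells treated with 1 mM arsenate for 1 h (DMSO pretreatment), heated to ten temperatures (37-66.3 °C). Soluble protein was quantified by TMT mass spectrometry relative to DMSO controls; the thermal stability score was transformed to a z-score; mean of n = 3 experiments.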

lipoamide = compound: NC(=O)CCCCC1CCSS1 [lipoamide]; assay: as above; conditions: HeLa, lipoamide concentration 100 µM
Method: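 Cellular thermal proteome profiling in HeLa cells. Cells were treated with 100 µM lipoamide for 1 h, with or without 1 mM arsenate for a further 1 h, then heated to ten temperatures (37-66.3 °C), and soluble protein was quantified by TMT mass spectrometry relative to 0.1% DMSO controls. The thermal stability score (sum of log2 fold changes minus the abundance score) was transformed to a z-score; mean of n = 3 experiments.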

[1] = arsenate co-treatment: 1 mM arsenate 1 h
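Further: each temperature applied for 3 min, abundance score taken as mean log2 fold change at the two lowest temperatures, z-score obtained by mean subtraction and division by SD.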

Sequence of UniProt O95140 (O95140 whole entry): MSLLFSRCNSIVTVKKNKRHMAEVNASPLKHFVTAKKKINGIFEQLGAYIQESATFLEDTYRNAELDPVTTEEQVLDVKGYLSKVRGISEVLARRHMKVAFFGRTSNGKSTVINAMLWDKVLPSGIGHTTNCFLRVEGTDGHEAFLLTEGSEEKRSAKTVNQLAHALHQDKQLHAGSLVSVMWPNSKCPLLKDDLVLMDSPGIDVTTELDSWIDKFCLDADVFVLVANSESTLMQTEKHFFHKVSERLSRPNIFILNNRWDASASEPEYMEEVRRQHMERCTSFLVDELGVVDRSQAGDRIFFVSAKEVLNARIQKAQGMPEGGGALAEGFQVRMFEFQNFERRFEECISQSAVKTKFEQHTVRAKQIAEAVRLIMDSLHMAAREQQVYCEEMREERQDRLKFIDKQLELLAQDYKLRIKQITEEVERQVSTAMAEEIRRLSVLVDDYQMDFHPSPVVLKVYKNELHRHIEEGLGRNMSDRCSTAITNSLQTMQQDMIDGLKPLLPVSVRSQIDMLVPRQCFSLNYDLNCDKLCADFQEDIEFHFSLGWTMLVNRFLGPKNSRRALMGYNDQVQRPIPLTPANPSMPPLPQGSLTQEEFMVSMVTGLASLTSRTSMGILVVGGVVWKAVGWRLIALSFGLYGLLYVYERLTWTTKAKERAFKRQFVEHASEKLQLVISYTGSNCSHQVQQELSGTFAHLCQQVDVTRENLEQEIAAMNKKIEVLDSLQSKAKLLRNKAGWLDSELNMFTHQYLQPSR
Sequence of UniProt Q9UN79 (Q9UN79 whole entry): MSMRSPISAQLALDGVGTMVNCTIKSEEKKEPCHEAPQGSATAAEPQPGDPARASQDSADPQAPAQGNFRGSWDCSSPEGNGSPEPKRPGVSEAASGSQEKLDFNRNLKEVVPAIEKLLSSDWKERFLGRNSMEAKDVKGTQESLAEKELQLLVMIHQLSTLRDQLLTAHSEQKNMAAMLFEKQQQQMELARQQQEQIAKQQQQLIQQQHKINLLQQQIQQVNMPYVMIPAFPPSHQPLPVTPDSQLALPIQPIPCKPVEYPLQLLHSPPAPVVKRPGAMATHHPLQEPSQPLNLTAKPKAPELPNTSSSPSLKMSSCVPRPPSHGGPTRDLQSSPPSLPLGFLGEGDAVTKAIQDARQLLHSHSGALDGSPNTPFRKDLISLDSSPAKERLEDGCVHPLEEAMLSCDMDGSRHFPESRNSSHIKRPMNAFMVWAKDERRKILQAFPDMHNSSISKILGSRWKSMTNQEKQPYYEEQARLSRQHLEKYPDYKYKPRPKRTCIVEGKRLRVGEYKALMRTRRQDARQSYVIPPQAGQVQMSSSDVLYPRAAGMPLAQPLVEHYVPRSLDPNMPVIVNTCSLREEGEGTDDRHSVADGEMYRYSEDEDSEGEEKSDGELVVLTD
Sequence of UniProt Q9ULG6 (Q9ULG6 whole entry): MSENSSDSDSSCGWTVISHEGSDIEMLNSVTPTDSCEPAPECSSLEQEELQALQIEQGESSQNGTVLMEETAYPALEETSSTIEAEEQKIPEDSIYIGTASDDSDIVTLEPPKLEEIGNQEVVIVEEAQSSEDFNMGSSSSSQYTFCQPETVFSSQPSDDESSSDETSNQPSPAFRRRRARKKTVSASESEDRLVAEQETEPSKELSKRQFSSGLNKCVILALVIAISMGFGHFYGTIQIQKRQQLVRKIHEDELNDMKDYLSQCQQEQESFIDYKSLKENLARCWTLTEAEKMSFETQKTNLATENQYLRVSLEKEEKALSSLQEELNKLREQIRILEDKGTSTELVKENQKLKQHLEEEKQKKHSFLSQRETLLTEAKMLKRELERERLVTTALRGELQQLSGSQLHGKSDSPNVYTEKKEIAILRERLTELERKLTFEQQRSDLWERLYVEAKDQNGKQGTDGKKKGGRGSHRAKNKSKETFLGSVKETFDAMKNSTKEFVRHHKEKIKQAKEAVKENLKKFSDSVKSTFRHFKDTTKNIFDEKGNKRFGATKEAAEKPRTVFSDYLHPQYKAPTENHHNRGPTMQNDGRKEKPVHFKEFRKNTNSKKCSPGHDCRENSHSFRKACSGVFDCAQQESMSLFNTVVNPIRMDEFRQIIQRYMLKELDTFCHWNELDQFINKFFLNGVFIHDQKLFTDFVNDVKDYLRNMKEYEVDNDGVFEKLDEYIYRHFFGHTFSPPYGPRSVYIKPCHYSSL
Sequence of UniProt Q9HDC9 (Q9HDC9 whole entry): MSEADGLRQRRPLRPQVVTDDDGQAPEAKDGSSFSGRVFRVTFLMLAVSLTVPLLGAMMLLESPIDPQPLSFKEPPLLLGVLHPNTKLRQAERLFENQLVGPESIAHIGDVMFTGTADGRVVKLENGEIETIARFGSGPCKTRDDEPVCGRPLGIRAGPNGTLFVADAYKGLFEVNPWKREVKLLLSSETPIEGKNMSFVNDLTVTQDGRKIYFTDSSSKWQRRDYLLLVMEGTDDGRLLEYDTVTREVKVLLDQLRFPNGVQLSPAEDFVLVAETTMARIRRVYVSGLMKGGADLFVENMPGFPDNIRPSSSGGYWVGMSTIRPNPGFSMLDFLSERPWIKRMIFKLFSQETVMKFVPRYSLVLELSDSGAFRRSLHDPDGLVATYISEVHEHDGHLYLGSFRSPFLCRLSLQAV
Sequence of UniProt Q13425 (Q13425 whole entry): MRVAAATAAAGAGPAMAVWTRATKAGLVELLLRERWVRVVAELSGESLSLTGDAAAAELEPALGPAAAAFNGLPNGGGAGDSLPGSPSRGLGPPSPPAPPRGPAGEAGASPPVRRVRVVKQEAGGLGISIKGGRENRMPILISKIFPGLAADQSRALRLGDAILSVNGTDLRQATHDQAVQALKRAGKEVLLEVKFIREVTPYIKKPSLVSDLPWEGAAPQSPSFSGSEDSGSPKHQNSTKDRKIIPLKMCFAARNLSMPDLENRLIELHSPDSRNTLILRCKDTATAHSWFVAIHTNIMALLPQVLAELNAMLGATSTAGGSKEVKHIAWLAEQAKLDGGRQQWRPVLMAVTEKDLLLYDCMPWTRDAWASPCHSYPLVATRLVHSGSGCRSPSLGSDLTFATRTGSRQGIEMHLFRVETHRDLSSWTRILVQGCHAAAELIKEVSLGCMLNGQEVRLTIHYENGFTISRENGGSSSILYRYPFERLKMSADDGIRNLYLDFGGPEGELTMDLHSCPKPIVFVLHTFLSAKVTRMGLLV
Sequence of UniProt Q15170 (Q15170 whole entry): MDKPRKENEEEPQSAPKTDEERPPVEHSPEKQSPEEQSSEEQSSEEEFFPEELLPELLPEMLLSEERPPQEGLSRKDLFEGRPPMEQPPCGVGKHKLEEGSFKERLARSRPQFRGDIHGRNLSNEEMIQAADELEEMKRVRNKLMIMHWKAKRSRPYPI
Sequence of UniProt Q9UNQ2 (Q9UNQ2 whole entry): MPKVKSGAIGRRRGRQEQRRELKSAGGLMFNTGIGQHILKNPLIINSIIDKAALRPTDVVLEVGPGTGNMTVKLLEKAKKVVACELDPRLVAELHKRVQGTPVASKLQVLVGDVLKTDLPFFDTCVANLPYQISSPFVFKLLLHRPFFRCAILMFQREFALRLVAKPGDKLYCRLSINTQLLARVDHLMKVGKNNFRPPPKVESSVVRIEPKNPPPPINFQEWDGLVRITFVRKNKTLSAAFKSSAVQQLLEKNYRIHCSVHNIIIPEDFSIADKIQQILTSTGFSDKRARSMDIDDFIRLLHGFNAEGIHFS
Sequence of UniProt Q8NAF0 (Q8NAF0 whole entry): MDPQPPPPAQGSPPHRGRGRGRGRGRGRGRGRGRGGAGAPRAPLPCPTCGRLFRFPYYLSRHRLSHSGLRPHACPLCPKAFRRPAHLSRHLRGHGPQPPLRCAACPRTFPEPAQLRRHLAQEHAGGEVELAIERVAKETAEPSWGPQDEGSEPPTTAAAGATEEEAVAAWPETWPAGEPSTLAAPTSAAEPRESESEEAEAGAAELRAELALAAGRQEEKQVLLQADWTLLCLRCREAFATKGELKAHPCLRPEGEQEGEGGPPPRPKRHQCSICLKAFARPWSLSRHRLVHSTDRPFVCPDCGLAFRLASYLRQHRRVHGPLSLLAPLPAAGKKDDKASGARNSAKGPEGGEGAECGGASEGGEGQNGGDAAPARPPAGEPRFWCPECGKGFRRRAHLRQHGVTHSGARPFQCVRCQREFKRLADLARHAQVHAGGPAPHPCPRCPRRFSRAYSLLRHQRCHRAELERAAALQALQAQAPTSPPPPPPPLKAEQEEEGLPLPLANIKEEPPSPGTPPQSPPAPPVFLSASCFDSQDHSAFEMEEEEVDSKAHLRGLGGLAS
Sequence of UniProt Q8IUI8 (Q8IUI8 whole entry): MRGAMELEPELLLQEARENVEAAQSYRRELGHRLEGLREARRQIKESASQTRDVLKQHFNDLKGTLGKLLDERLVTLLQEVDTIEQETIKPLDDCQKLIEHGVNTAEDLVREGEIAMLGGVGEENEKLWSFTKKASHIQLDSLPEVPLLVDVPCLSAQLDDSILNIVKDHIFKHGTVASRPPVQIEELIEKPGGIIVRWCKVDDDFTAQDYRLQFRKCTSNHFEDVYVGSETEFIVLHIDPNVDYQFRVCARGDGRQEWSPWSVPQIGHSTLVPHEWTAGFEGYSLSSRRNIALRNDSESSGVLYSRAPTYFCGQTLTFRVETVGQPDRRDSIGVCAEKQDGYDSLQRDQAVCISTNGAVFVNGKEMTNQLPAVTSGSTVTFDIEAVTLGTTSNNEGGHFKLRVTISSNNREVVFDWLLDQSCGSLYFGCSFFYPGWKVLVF
Sequence of UniProt P05198 (P05198 whole entry): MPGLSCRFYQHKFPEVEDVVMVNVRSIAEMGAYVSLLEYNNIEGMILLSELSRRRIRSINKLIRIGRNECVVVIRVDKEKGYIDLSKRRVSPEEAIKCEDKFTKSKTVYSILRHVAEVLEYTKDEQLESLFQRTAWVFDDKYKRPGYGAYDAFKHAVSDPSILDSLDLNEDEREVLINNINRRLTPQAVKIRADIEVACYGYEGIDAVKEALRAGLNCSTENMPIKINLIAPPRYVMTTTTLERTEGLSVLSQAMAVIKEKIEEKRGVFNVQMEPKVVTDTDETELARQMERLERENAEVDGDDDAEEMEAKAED

Target | thermal stability z-score (potassium arsenate) | thermal stability z-score (lipoamide; [1]) | thermal stability z-score (lipoamide; arsenate co-treatment: none)
MRPL39 (UniProt Q9NYK5) | 0.057 | -0.499 | -0.225
APMAP (UniProt Q9HDC9) | 0.179 | 1.33 | 0.655
MFN2 (UniProt O95140) | 0.252 | -0.0814 | -0.338
RPS13 (UniProt P62277) | -1.11 | 0.784 | 0.463
BZW2 (UniProt Q9Y6E2) | -0.183 | 0.428 | 0.313
ATP6V1A (UniProt P38606) | -0.613 | -0.368 | -0.529
SOX13 (UniProt Q9UN79) | -0.618 | -0.169 | 0.00372
CCPG1 (UniProt Q9ULG6) | 0.351 | -2.1 | -2.44
CRLF3 (UniProt Q8IUI8) | 0.0579 | -0.236 | -0.971
RAB8B (UniProt Q92930) | -0.115 | 0.327 | 0.127
UBE2T (UniProt Q9NPD8) | -0.137 | 0.245 | 0.447
WARS (UniProt P23381) | 0.737 | 0.561 | 0.612
PAIP1 (UniProt Q9H074) | 0.0886 | 0.875 | 0.836
AES (UniProt Q08117) | 0.378 | 0.656 | 0.111
EIF2S1 (UniProt P05198) | 0.0905 | -0.375 | -0.142
ZNF579 (UniProt Q8NAF0) | 0.155 | -0.34 | -0.434
CD2AP (UniProt Q9Y5K6) | 0.988 | 0.591 | 0.887
FAM160B1 (UniProt Q5W0V3) | -1.49 | -0.512 | -0.179

Target | thermal stability z-score (potassium arsenate) | thermal stability z-score (lipoamide; [1]) | thermal stability z-score (lipoamide; arsenate co-treatment: none)
SURF4 (UniProt O15260) | -0.243 | -0.416 | -0.214
TAGLN (UniProt Q01995) | -1.55 | -0.0305 | 1.13
EZH2 (UniProt Q15910) | -0.158 | -0.0218 | -0.132
OCRL (UniProt Q01968) | 0.24 | 0.142 | 0.13
RTN4IP1 (UniProt Q8WWV3) | 0.0315 | -0.324 | -0.26
AP3S1 (UniProt Q92572) | 0.131 | 0.0661 | 0.0785
SRRM2 (UniProt Q9UQ35) | -0.494 | 2.25 | 1.42
HDDC2 (UniProt Q7Z4H3) | -0.419 | -0.204 | -0.127
ARPC1A (UniProt Q92747) | -0.466 | -0.106 | 0.0846
DIEXF (UniProt Q68CQ4) | 0.134 | 0.1 | 0.0895
SLC25A36 (UniProt Q96CQ1) | -0.241 | 0.659 | 0.329
IREB2 (UniProt P48200) | -0.386 | -0.0142 | 0.0771
TCEAL1 (UniProt Q15170) | 0.192 | 0.347 | 0.809
DIMT1 (UniProt Q9UNQ2) | -0.418 | 0.142 | 0.0753
SIL1 (UniProt Q9H173) | 1.44 | -3.15 | -2.4
KXD1 (UniProt Q9BQD3) | 0.28 | 0.543 | 0.711
LIX1L (UniProt Q8IVB5) | -0.301 | -0.241 | -0.219
SNTB2 (UniProt Q13425) | -0.227 | 0.14 | -0.309
